Test system: α-glucosidase (EC 3.2.1.20) derived from pig liver

Substance: α-Glucosyl naringin
- hydrolysis by α-glucosidase: hydrolyzed α-glucosyl naringin into naringin and D-glucose

Reference: EP0455432A1, “Alpha-glycosyl naringin, and its preparation and uses” (KABUSHIKI KAISHA HAYASHIBARA SEIBUTSU KAGAKU KENKYUJO, priority 1990, dated 1991)
